The values that follow come from publication PMC12249915, “Development of a Cyclodextrin-Based Drug Delivery System to Improve the Physicochemical Properties of Ceftobiprole as a Model Antibiotic” (International Journal of Molecular Sciences, 2025).

≈ marks a conversion by molar mass, not a printed value. Where “and” joins values, the source holds several entries; their conditions need not be identical. Equal values may be shown once. Read-outs that look alike come from different tables or passages of the source.

The nature of data set [1]: DOSY NMR study of complex formation with SBE-β-CD. The data set is classed as physicochemical. As to conditions: for diffusion coefficient D: DOSY, D2O, 25 °C, ceftobiprole/maleic acid 1:25 without SBE-β-CD at 7.5 mM ceftobiprole. The source says: Another approach to investigate the complex formation using NMR is the use of Diffusion-Ordered SpectroscopY (DOSY). Based on chemical shifts, each individual signal can be assigned to a proper species present in the analysed sample solution, thus allowing us to determine its diffusion coefficient D . The value of D depends on the hydrodynamic radius r of the analysed species, temperature T , and on the dynamic viscosity η of the solution:(1) D=kBT/6π η r
Here, kB stands for the Boltzmann constant. The solutions used for the DOSY measurements should be appropriately diluted to avoid the viscosity-related issues. Moreover, to properly compare the DOSY spectra between the samples with and without SBE-β-CD, it must be checked whether the viscosities of these two samples are similar.
It is a generally accepted practice to approximate that D is the same for the CD in a complex and for free CD. Assuming a quick exchange regime, to calculate the molar fraction MFCB of ceftobiprole molecules being complexed in relation to all ceftobiprole molecules in the studied solution, one can take advantage of the equation stating that DCB−CD is the weighted average of DCB and DCD :(2) DCB−CD=MFCBDCB+(1−MFCB)DCD
The complexation equilibrium is dynamic, and can be interpreted as a statistical ceftobiprole molecule spending MFCB proportion of time in a complex, and (1−MFCB) fraction of time alone, resulting in overall DCB−CD being the weighted average.
In these studies, 16 increments consisting of 64 scans were performed. A relaxation time of 2 s, a diffusion time of 200 ms, a total diffusion encoding gradient duration of 2 ms, and 16 values of the diffusion encoding gradient incremented from 3 to 25 G/cm were applied. Processing was carried out using the OpenVnmrJ 3.1A software with the option of correction for spatially non-uniform pulsed field gradients.

A short description of data set [2]: pH of solutions before freeze-drying and after reconstitution. It is filed as physicochemical.
Details of data set [3]: method as in PMID 38068968. To be noted: theoretical calculations, depending on the software used; cited from earlier work.
For data set [4] the following is noted: cited from earlier work.
Data set [5] in a line: Solubility of ceftobiprole determined by HPLC. The data set is classed as physicochemical. Here is the method:
The samples were stored in a freezer, taking into account the recommended storage conditions for ceftobiprole. The stability of the prepared samples was tested at defined intervals using the same methodology. To evaluate potential changes in solubility due to physical transformations such as phase transitions or recrystallization, an identical volume of water was added as in the initial solubility test. Subsequently, the reconstituted samples were analysed by HPLC to determine the precise solubility and to monitor any increase in the concentration of DPs content, thereby assessing both physical and chemical stability.
The LC-MS/MS experiments were performed using the same equipment and methodology as described in [14], with one modification: to acquire a full mass spectrum of SBE-β-CD, the range of detected m/z was broadened to 2500.

With `O=C(O)/C=C\C(=O)O` [maleic acid], the “diffusion coefficient D” value in data set [1] was 7.11 × 10^−10 m^2/s.
Consider `O=C(O)CC(O)(CC(=O)O)C(=O)O` [citric acid], for which the “pH of the solution intended for freeze-drying” value was found to be 2.9 in data set [2] (20-fold molar excess of citric acid in relation to ceftobiprole), 2.7 in data set [2] (50-fold molar excess of citric acid in relation to ceftobiprole) and 2.5 in data set [2] (100-fold molar excess of citric acid in relation to ceftobiprole).
By solubility is commonly meant how much of the substance goes into solution per volume. As for `Nc1nc(/C(=N/O)C(=O)N[C@@H]2C(=O)N3C(C(=O)O)=C(/C=C4\CCN([C@@H]5CCNC5)C4=O)CS[C@H]23)ns1` [ceftobiprole], the “pH of the dissolved sample” value in data set [2] (freeze-dried in 0.1 M HCOOH without SBE-β-CD) is “approximately 5”. In addition, in data set [1], the “diffusion coefficient D” value is reported as “≈ 3.16 × 10^−10 m^2/s”. Further, the “molar fraction MFCB of ceftobiprole molecules being complexed” value in data set [1] (cCB = 1.917 mM, cCD = 7.667 mM) was “≈ 0.35”. Further, the “molar fraction MFCB” value is given as 0.845 in data set [1] (calculated for cCB = 22.5 mM, cCD = 90 mM (1:25:4), K = 77 M^−1) and 0.693 in data set [1] (calculated for molar ratio 1:25:2, cCD = 45 mM). In data set [1] (semi-quantitative, from DOSY), the “equilibrium constant K of complex with SBE-β-CD” value is 77 M⁻¹. In addition, the “ceftobiprole molecules in the complex with SBE-β-CD” value in data set [1] (solution near saturation, 1:25:4) came out at 85%. The “pKa of the carboxyl group of ceftobiprole” value in data set [3] is 3.0 and 3.2. Moreover, the figures for the t90 entry in data set [4] (0.01 M NaOH), in data set [4] (3% H2O2) and in data set [4] (UV irradiation at 366 nm) were “≈ 10 min”, “≈ 25 min” and “≈ 1 h”, respectively. The “t90 (time for 10% decrease in initial concentration)” value in data set [4] (0.1 M HCl at room temperature) was “approximately 22 h”. The “decrease of degradation rate constant in the presence of 10 mM SBE-β-CD” value in data set [4] (acidic degradation in 0.1 M HCl at 25 °C) and in data set [4] (thermal degradation in water at 45 °C) was 2.5 fold in each case. The solubility in data set [5] (0.1 M aqueous formic acid (HCOOH), solubility of ceftobiprole before use of 0.1 M formic acid and SBE-β-CD) was approximately 100 µg/mL (≈ 187 µM); in data set [5] (water, freeze-dried analogue without SBE-β-CD, reconstituted in water, read-out: Solubility of Ceftobiprole for Freeze-Dried Samples in a Preliminary Study Without SBE-β-CD) it was 2100 µg/mL (≈ 3930 µM); in data set [5] (water, freeze-dried from water without acid, read-out: solubility after freeze-drying of pure aqueous solutions) it was 120 µg/mL (≈ 224 µM); in data set [5] (water, without freeze-drying in acidic environment, read-out: water solubility of ceftobiprole), 50 µg/mL (≈ 93.5 µM). Further, the “fold higher solubility after freeze-drying in 0.1 M HCOOH” value in data set [5] (freeze-dried (2.1 mg/mL) vs unprocessed in 0.1 M HCOOH ([…])) came out at 15 fold.
